According to ChEMBL document CHEMBL4257466, “The use of matched molecular series networks for cross target structure activity relationship translation and potency prediction” (Medchemcomm, 2017):

Target: RNA-directed RNA polymerase (Hepacivirus hominis, UniProt O39930)
Assay: Inhibition of HCV RNA polymerase

RNA-directed RNA polymerase, sequence (O39930 whole entry): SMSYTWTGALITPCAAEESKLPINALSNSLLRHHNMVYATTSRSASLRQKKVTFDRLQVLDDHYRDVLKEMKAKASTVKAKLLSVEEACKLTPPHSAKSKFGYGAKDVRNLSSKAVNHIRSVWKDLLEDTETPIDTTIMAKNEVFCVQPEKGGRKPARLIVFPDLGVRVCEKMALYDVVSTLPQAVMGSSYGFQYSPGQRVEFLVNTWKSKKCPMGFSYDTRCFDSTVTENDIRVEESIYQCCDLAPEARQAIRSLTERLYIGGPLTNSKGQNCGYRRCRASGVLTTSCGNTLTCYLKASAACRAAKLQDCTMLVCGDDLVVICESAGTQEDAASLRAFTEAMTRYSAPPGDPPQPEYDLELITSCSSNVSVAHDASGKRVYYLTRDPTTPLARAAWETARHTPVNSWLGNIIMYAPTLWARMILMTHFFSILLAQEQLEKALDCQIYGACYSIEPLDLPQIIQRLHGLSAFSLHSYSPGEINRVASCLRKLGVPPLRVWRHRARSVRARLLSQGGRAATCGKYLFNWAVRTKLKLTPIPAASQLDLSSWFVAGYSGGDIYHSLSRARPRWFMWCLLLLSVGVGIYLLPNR

| SMILES | IC50 [nM] |
| --- | --- |
| CNC(=O)c1c(-c2ccc(F)cc2)oc2nc(CNS(C)(=O)=O)c(C3CC3)cc12 | 501 |
| CNC(=O)c1c(-c2ccc(F)cc2)oc2nc(CNC(=O)COC)c(C3CC3)cc12 | 3160 |
| CNC(=O)c1c(-c2ccc(F)cc2)oc2nc(CNC(=O)C3CCOC3)c(C3CC3)cc12 (stereo not given) | 2510 |
| CNC(=O)c1c(-c2ccc(F)cc2)oc2nc(CN)c(C3CC3)cc12 | 6310 |
| CNC(=O)c1c(-c2ccc(F)cc2)oc2nc(CNC(C)=O)c(C3CC3)cc12 | 631 |
